From PubChem BioAssay AID1963845 (Molecular Pharmacology Branch, DTP, NCI, 2024) come the findings set out here.
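Note: luminescence signal used as surrogate measure of viable cells; spheroids exposed to compounds for seven days before readout.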
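Throughout, for viability, T/C: 100% = DMSO vehicle control viability as luminescence relative to vehicle.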

The first assay concerns 429239-143-T-J1-PDC complex spheroid viability. The experiment in a line: Anticancer human tumor 429239-143-T-J1-PDC patient-derived small cell lung carcinoma cell line growth inhibition [POLQ]. The note with it: curve of first compound; second compound 0.0316 µM. The procedure, abridged:
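Three-cell-type spheroids modelling solid tumor plus stroma served as the readout system; POL inhibitors were tested individually and in combination, concentration ranges set by clinical Cmax where known.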
A word on the IC50: it is the concentration that inhibits the measured activity by half. As to `C=CCn1c(=O)c2cnc(Nc3ccc(N4CCN(C)CC4)cc3)nc2n1-c1cccc(C(C)(C)O)n1` + Nc1ccc(C#CCN(C(=O)Cc2ncc(C(F)(F)F)cc2C(F)(F)F)c2ccc(F)cc2)nn1, the IC50 stood at 0.584 µM.

Turning to `CNCc1ccc(-c2[nH]c3cc(F)cc4c3c2CCNC4=O)cc1` + Nc1ccc(C#CCN(C(=O)Cc2ncc(C(F)(F)F)cc2C(F)(F)F)c2ccc(F)cc2)nn1, the IC50 is 6.53 µM.

With `COc1cccc(OCCCN)c1-c1cc(Nc2cnc(C#N)cn2)n[nH]1` + Nc1ccc(C#CCN(C(=O)Cc2ncc(C(F)(F)F)cc2C(F)(F)F)c2ccc(F)cc2)nn1, the IC50 stood at 0.398 µM.

With `O=C(c1cc(Cc2n[nH]c(=O)c3ccccc23)ccc1F)N1CCN(C(=O)C2CC2)CC1` + Nc1ccc(C#CCN(C(=O)Cc2ncc(C(F)(F)F)cc2C(F)(F)F)c2ccc(F)cc2)nn1, the IC50 was 4.18 µM.

The assay is the same for the next values; noted with them: curve of first compound; second compound 0.1 µM.
Consider `C=CCn1c(=O)c2cnc(Nc3ccc(N4CCN(C)CC4)cc3)nc2n1-c1cccc(C(C)(C)O)n1` + Nc1ccc(C#CCN(C(=O)Cc2ncc(C(F)(F)F)cc2C(F)(F)F)c2ccc(F)cc2)nn1, for which the IC50 came out at 0.624 µM.

In the case of `CNCc1ccc(-c2[nH]c3cc(F)cc4c3c2CCNC4=O)cc1` + Nc1ccc(C#CCN(C(=O)Cc2ncc(C(F)(F)F)cc2C(F)(F)F)c2ccc(F)cc2)nn1, the IC50 was 6.07 µM.

As to `COc1cccc(OCCCN)c1-c1cc(Nc2cnc(C#N)cn2)n[nH]1` + Nc1ccc(C#CCN(C(=O)Cc2ncc(C(F)(F)F)cc2C(F)(F)F)c2ccc(F)cc2)nn1, the IC50 came out at 0.305 µM.

As to `O=C(c1cc(Cc2n[nH]c(=O)c3ccccc23)ccc1F)N1CCN(C(=O)C2CC2)CC1` + Nc1ccc(C#CCN(C(=O)Cc2ncc(C(F)(F)F)cc2C(F)(F)F)c2ccc(F)cc2)nn1, the IC50 was 3.96 µM.

The assay is the same for the next values; noted with them: curve of first compound; second compound 0.316 µM.
Take `C=CCn1c(=O)c2cnc(Nc3ccc(N4CCN(C)CC4)cc3)nc2n1-c1cccc(C(C)(C)O)n1` + Nc1ccc(C#CCN(C(=O)Cc2ncc(C(F)(F)F)cc2C(F)(F)F)c2ccc(F)cc2)nn1: the 50% inhibitory concentration (IC50) amounted to 0.599 µM.

Take `CNCc1ccc(-c2[nH]c3cc(F)cc4c3c2CCNC4=O)cc1` + Nc1ccc(C#CCN(C(=O)Cc2ncc(C(F)(F)F)cc2C(F)(F)F)c2ccc(F)cc2)nn1: the IC50 worked out at 6.32 µM.

Regarding `COc1cccc(OCCCN)c1-c1cc(Nc2cnc(C#N)cn2)n[nH]1` + Nc1ccc(C#CCN(C(=O)Cc2ncc(C(F)(F)F)cc2C(F)(F)F)c2ccc(F)cc2)nn1, the IC50 worked out at 0.219 µM.

In the case of `O=C(c1cc(Cc2n[nH]c(=O)c3ccccc23)ccc1F)N1CCN(C(=O)C2CC2)CC1` + Nc1ccc(C#CCN(C(=O)Cc2ncc(C(F)(F)F)cc2C(F)(F)F)c2ccc(F)cc2)nn1, the IC50 amounted to 4.09 µM.

Staying with this assay, now noted: curve of first compound; second compound 1 µM.
Consider `C=CCn1c(=O)c2cnc(Nc3ccc(N4CCN(C)CC4)cc3)nc2n1-c1cccc(C(C)(C)O)n1` + Nc1ccc(C#CCN(C(=O)Cc2ncc(C(F)(F)F)cc2C(F)(F)F)c2ccc(F)cc2)nn1, for which the IC50 stood at 0.578 µM.

Take `CNCc1ccc(-c2[nH]c3cc(F)cc4c3c2CCNC4=O)cc1` + Nc1ccc(C#CCN(C(=O)Cc2ncc(C(F)(F)F)cc2C(F)(F)F)c2ccc(F)cc2)nn1: the IC50 turned out to be 5.54 µM.

Take `COc1cccc(OCCCN)c1-c1cc(Nc2cnc(C#N)cn2)n[nH]1` + Nc1ccc(C#CCN(C(=O)Cc2ncc(C(F)(F)F)cc2C(F)(F)F)c2ccc(F)cc2)nn1: the half-maximal inhibitory concentration (IC50) amounted to 0.224 µM.

Take `O=C(c1cc(Cc2n[nH]c(=O)c3ccccc23)ccc1F)N1CCN(C(=O)C2CC2)CC1` + Nc1ccc(C#CCN(C(=O)Cc2ncc(C(F)(F)F)cc2C(F)(F)F)c2ccc(F)cc2)nn1: the IC50 is 4.13 µM.

The same assay, now with this note: curve of first compound; second compound 3.16 µM.
On to `C=CCn1c(=O)c2cnc(Nc3ccc(N4CCN(C)CC4)cc3)nc2n1-c1cccc(C(C)(C)O)n1` + Nc1ccc(C#CCN(C(=O)Cc2ncc(C(F)(F)F)cc2C(F)(F)F)c2ccc(F)cc2)nn1, for which the IC50 came to 0.576 µM.

Turning to `CNCc1ccc(-c2[nH]c3cc(F)cc4c3c2CCNC4=O)cc1` + Nc1ccc(C#CCN(C(=O)Cc2ncc(C(F)(F)F)cc2C(F)(F)F)c2ccc(F)cc2)nn1, the half-inhibitory concentration (IC50) came out at 6.09 µM.

With `COc1cccc(OCCCN)c1-c1cc(Nc2cnc(C#N)cn2)n[nH]1` + Nc1ccc(C#CCN(C(=O)Cc2ncc(C(F)(F)F)cc2C(F)(F)F)c2ccc(F)cc2)nn1, the half-inhibitory concentration (IC50) came to 0.234 µM.

As to `O=C(c1cc(Cc2n[nH]c(=O)c3ccccc23)ccc1F)N1CCN(C(=O)C2CC2)CC1` + Nc1ccc(C#CCN(C(=O)Cc2ncc(C(F)(F)F)cc2C(F)(F)F)c2ccc(F)cc2)nn1, the IC50 amounted to 4.25 µM.

The assay is the same for the next values; noted with them: curve of first compound; second compound 10 µM.
Regarding `C=CCn1c(=O)c2cnc(Nc3ccc(N4CCN(C)CC4)cc3)nc2n1-c1cccc(C(C)(C)O)n1` + Nc1ccc(C#CCN(C(=O)Cc2ncc(C(F)(F)F)cc2C(F)(F)F)c2ccc(F)cc2)nn1, the IC50 was 0.548 µM.

With `CNCc1ccc(-c2[nH]c3cc(F)cc4c3c2CCNC4=O)cc1` + Nc1ccc(C#CCN(C(=O)Cc2ncc(C(F)(F)F)cc2C(F)(F)F)c2ccc(F)cc2)nn1, the IC50 came to 5.96 µM.

Turning to `COc1cccc(OCCCN)c1-c1cc(Nc2cnc(C#N)cn2)n[nH]1` + Nc1ccc(C#CCN(C(=O)Cc2ncc(C(F)(F)F)cc2C(F)(F)F)c2ccc(F)cc2)nn1, the IC50 is 0.16 µM.

As for `O=C(c1cc(Cc2n[nH]c(=O)c3ccccc23)ccc1F)N1CCN(C(=O)C2CC2)CC1` + Nc1ccc(C#CCN(C(=O)Cc2ncc(C(F)(F)F)cc2C(F)(F)F)c2ccc(F)cc2)nn1, the IC50 is 3.6 µM.

Still in this assay, the particulars now being: second compound 0.0316 µM; first compound 0.00316 µM; stronger effect = lower value.
What is called viability, T/C is the ratio of treated to control. As to `C=CCn1c(=O)c2cnc(Nc3ccc(N4CCN(C)CC4)cc3)nc2n1-c1cccc(C(C)(C)O)n1` + Nc1ccc(C#CCN(C(=O)Cc2ncc(C(F)(F)F)cc2C(F)(F)F)c2ccc(F)cc2)nn1, the viability, T/C was 95.7%.

For `COc1cccc(OCCCN)c1-c1cc(Nc2cnc(C#N)cn2)n[nH]1` + Nc1ccc(C#CCN(C(=O)Cc2ncc(C(F)(F)F)cc2C(F)(F)F)c2ccc(F)cc2)nn1, the viability, T/C was 91.8%.

The assay is the same for the next values; noted with them: second compound 0.0316 µM; first compound 0.01 µM; stronger effect = lower value.
`C=CCn1c(=O)c2cnc(Nc3ccc(N4CCN(C)CC4)cc3)nc2n1-c1cccc(C(C)(C)O)n1` + Nc1ccc(C#CCN(C(=O)Cc2ncc(C(F)(F)F)cc2C(F)(F)F)c2ccc(F)cc2)nn1: the viability, T/C was 97.4%.

Take `COc1cccc(OCCCN)c1-c1cc(Nc2cnc(C#N)cn2)n[nH]1` + Nc1ccc(C#CCN(C(=O)Cc2ncc(C(F)(F)F)cc2C(F)(F)F)c2ccc(F)cc2)nn1: the viability, T/C is 94.8%.

Still in this assay, the particulars now being: second compound 0.0316 µM; first compound 0.0316 µM; stronger effect = lower value.
Turning to `C=CCn1c(=O)c2cnc(Nc3ccc(N4CCN(C)CC4)cc3)nc2n1-c1cccc(C(C)(C)O)n1` + Nc1ccc(C#CCN(C(=O)Cc2ncc(C(F)(F)F)cc2C(F)(F)F)c2ccc(F)cc2)nn1, the viability, T/C was 106%.

Turning to `CNCc1ccc(-c2[nH]c3cc(F)cc4c3c2CCNC4=O)cc1` + Nc1ccc(C#CCN(C(=O)Cc2ncc(C(F)(F)F)cc2C(F)(F)F)c2ccc(F)cc2)nn1, the viability, T/C is 98.7%.

Regarding `COc1cccc(OCCCN)c1-c1cc(Nc2cnc(C#N)cn2)n[nH]1` + Nc1ccc(C#CCN(C(=O)Cc2ncc(C(F)(F)F)cc2C(F)(F)F)c2ccc(F)cc2)nn1, the viability, T/C is 87.6%.

On to `O=C(c1cc(Cc2n[nH]c(=O)c3ccccc23)ccc1F)N1CCN(C(=O)C2CC2)CC1` + Nc1ccc(C#CCN(C(=O)Cc2ncc(C(F)(F)F)cc2C(F)(F)F)c2ccc(F)cc2)nn1, for which the viability, T/C is 101%.

Still in this assay, the particulars now being: second compound 0.0316 µM; first compound 0.1 µM; stronger effect = lower value.
`C=CCn1c(=O)c2cnc(Nc3ccc(N4CCN(C)CC4)cc3)nc2n1-c1cccc(C(C)(C)O)n1` + Nc1ccc(C#CCN(C(=O)Cc2ncc(C(F)(F)F)cc2C(F)(F)F)c2ccc(F)cc2)nn1: the viability, T/C is 101%.

As to `CNCc1ccc(-c2[nH]c3cc(F)cc4c3c2CCNC4=O)cc1` + Nc1ccc(C#CCN(C(=O)Cc2ncc(C(F)(F)F)cc2C(F)(F)F)c2ccc(F)cc2)nn1, the viability, T/C was 99.6%.

Turning to `COc1cccc(OCCCN)c1-c1cc(Nc2cnc(C#N)cn2)n[nH]1` + Nc1ccc(C#CCN(C(=O)Cc2ncc(C(F)(F)F)cc2C(F)(F)F)c2ccc(F)cc2)nn1, the viability, T/C was 72.7%.

Turning to `O=C(c1cc(Cc2n[nH]c(=O)c3ccccc23)ccc1F)N1CCN(C(=O)C2CC2)CC1` + Nc1ccc(C#CCN(C(=O)Cc2ncc(C(F)(F)F)cc2C(F)(F)F)c2ccc(F)cc2)nn1, the viability, T/C is 98.4%.

Staying with this assay, now noted: second compound 0.0316 µM; first compound 0.316 µM; stronger effect = lower value.
For `C=CCn1c(=O)c2cnc(Nc3ccc(N4CCN(C)CC4)cc3)nc2n1-c1cccc(C(C)(C)O)n1` + Nc1ccc(C#CCN(C(=O)Cc2ncc(C(F)(F)F)cc2C(F)(F)F)c2ccc(F)cc2)nn1, the viability, T/C was 88.1%.

On to `CNCc1ccc(-c2[nH]c3cc(F)cc4c3c2CCNC4=O)cc1` + Nc1ccc(C#CCN(C(=O)Cc2ncc(C(F)(F)F)cc2C(F)(F)F)c2ccc(F)cc2)nn1, for which the viability, T/C was 97.7%.

Turning to `COc1cccc(OCCCN)c1-c1cc(Nc2cnc(C#N)cn2)n[nH]1` + Nc1ccc(C#CCN(C(=O)Cc2ncc(C(F)(F)F)cc2C(F)(F)F)c2ccc(F)cc2)nn1, the viability, T/C is 55.2%.

Turning to `O=C(c1cc(Cc2n[nH]c(=O)c3ccccc23)ccc1F)N1CCN(C(=O)C2CC2)CC1` + Nc1ccc(C#CCN(C(=O)Cc2ncc(C(F)(F)F)cc2C(F)(F)F)c2ccc(F)cc2)nn1, the viability, T/C is 92.4%.

The same assay, now with this note: second compound 0.0316 µM; first compound 1 µM; stronger effect = lower value.
As to `C=CCn1c(=O)c2cnc(Nc3ccc(N4CCN(C)CC4)cc3)nc2n1-c1cccc(C(C)(C)O)n1` + Nc1ccc(C#CCN(C(=O)Cc2ncc(C(F)(F)F)cc2C(F)(F)F)c2ccc(F)cc2)nn1, the viability, T/C was 16.3%.

As for `CNCc1ccc(-c2[nH]c3cc(F)cc4c3c2CCNC4=O)cc1` + Nc1ccc(C#CCN(C(=O)Cc2ncc(C(F)(F)F)cc2C(F)(F)F)c2ccc(F)cc2)nn1, the viability, T/C is 94.6%.
